Here are results for 27 compounds from patent US8399681B2, “Substituted aminothiazolone indazoles as estrogen related receptor-alpha modulators” (Janssen Pharmaceutica NV, priority 2009, dated 2013).

The assay concerns the target T1, ERR1 (also known as ERR-α or ERR-1) (Homo sapiens, UniProt P11474).
T1 sequence (P11474 193-421 limits assumed): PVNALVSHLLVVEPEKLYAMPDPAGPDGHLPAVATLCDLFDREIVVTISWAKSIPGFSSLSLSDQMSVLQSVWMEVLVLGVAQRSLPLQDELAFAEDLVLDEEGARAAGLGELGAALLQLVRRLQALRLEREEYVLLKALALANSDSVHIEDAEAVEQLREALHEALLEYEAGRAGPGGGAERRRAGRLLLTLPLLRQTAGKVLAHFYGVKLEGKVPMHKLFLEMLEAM
The experiment in a line: TR-FRET assay (disruption of co-activator peptide binding). The conditions noted are these: 6His-tagged ERR1 LBD, GST-hSRC2 co-activator polypeptide; average of 3 independent experiments. The class given is biochemical. The method in brief:
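Compound-induced loss of co-activator recruitment, read by time-resolved FRET (excitation 340 nm; 615 and 665 nm emission) after 4-18 h at 25 °C. Reagents: 6 nM ERR1LBD, 6 nM GST-SRC-2, 30 nM Eu cryptate, 7.5 nM XL665, pH 8 Tris buffer. Values: hyperbolic fits averaged over 3 independent runs.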

In the case of `O=C1N=C(N2CCCN(CCO)CC2)S/C1=C\c1ccc2c(cnn2Cc2ccc(Cl)cc2C(F)(F)F)c1` [Example 76, 5-[1-(4-Chloro-2-trifluoromethyl-benzyl)-1H-indazol-5-ylmethylene]-2-[4-(2-hydroxy-ethyl)-[1,4]diazepan-1-yl]-thiazol-4-one], a half-maximal effect (EC50) was put at 0.0183 µM.

The compound `NC1CN(C2=NC(=O)/C(=C/c3ccc4c(cnn4Cc4ccc(C(F)(F)F)cc4C(F)(F)F)c3)S2)C1` [Example 77, 2-(3-Amino-azetidin-1-yl)-5-[1-(2,4-bis-trifluoromethyl-benzyl)-1H-indazol-5-ylmethylene]-thiazol-4-one] had an EC50 of 0.0587 µM.

With `CN1C[C@@H]2C[C@H]1CN2C1=NC(=O)/C(=C/c2ccc3c(cnn3Cc3ccc(Cl)cc3C(F)(F)F)c2)S1` [Example 78, 5-[1-(4-Chloro-2-trifluoromethyl-benzyl)-1H-indazol-5-ylmethylene]-2-(5-methyl-2S,5S-diaza-bicyclo[2.2.1]hept-2-yl)-thiazol-4-one], the EC50 stood at 0.0045 µM.

With `NC(=O)CN1CCN(C2=NC(=O)/C(=C/c3ccc4c(cnn4Cc4ccc(Cl)cc4C(F)(F)F)c3)S2)CC1` [Example 79, 2-(4-{5-[1-(4-Chloro-2-trifluoromethyl-benzyl)-1H-indazol-5-ylmethylene]-4-oxo-4,5-dihydro-thiazol-2-yl}-piperazin-1-yl)-acetamide], the EC50 amounted to 0.009 µM.

Compound `O=C1N=C(N2C[C@@H]3C[C@H]2CN3CCO)S/C1=C\c1ccc2c(cnn2Cc2ccc(Cl)cc2C(F)(F)F)c1` [Example 80, 5-[1-(4-Chloro-2-trifluoromethyl-benzyl)-1H-indazol-5-ylmethylene]-2-[5-(2-hydroxy-ethyl)-2S,5S-diaza-bicyclo[2.2.1]hept-2-yl]-thiazol-4-one] came in with an EC50 of 0.0057 µM.

`CCOCCN1CCN(C2=NC(=O)/C(=C/c3ccc4c(cnn4Cc4ccc(Cl)cc4C(F)(F)F)c3)S2)CC1` [Example 81, 5-[1-(4-Chloro-2-trifluoromethyl-benzyl)-1H-indazol-5-ylmethylene]-2-[4-(2-ethoxy-ethyl)-piperazin-1-yl]-thiazol-4-one] had an EC50 of 0.0688 µM.

For the compound `CNC(=O)CN1CCN(C2=NC(=O)/C(=C/c3ccc4c(cnn4Cc4ccc(Cl)cc4C(F)(F)F)c3)S2)CC1` [Example 82, 2-(4-{5-[1-(4-Chloro-2-trifluoromethyl-benzyl)-1H-indazol-5-ylmethylene]-4-oxo-4,5-dihydro-thiazol-2-yl}piperazin-1-yl)-N-methyl-acetamide], a half-maximal response (EC50) required 0.0076 µM.

`C[C@@H]1CNCCN1C1=NC(=O)/C(=C/c2ccc3c(cnn3Cc3ccc(Cl)cc3C(F)(F)F)c2)S1` [Example 83, 5-[1-(4-Chloro-2-trifluoromethyl-benzyl)-1H-indazol-5-ylmethylene]-2-(2-(R)-methyl-piperazin-1-yl)-thiazol-4-one] had an EC50 of 0.015 µM.

As for `CC(C)(C)N1CCN(C2=NC(=O)/C(=C/c3ccc4c(cnn4Cc4ccc(Cl)cc4C(F)(F)F)c3)S2)CC1` [Example 84, 2-(4-tert-Butyl-piperazin-1-yl)-5-[1-(4-chloro-2-trifluoromethyl-benzyl)-1H-indazol-5-ylmethylene]-thiazol-4-one], the EC50 turned out to be 0.039 µM.

Compound `COCCN1C[C@@H]2C[C@H]1CN2C1=NC(=O)/C(=C/c2ccc3c(cnn3Cc3ccc(Cl)cc3C(F)(F)F)c2)S1` [Example 85, 5-[1-(4-Chloro-2-trifluoromethyl-benzyl)-1H-indazol-5-ylmethylene]-2-[5-(2-methoxy-ethyl)-2S,5S-diaza-bicyclo[2.2.1]hept-2-yl]-thiazol-4-one] gave an EC50 of 0.0086 µM. Compared with the last compound, the EC50 is about 4.5-fold lower.

The compound `CN1C[C@H]2CC[C@@H](C1)N2C1=NC(=O)/C(=C/c2ccc3c(cnn3Cc3ccc(C(F)(F)F)cc3C(F)(F)F)c2)S1` [Example 86, 5-[1-(2,4-Bis-trifluoromethyl-benzyl)-1H-indazol-5-ylmethylene]-2-(3-methyl-3,8-diaza-bicyclo[3.2.1]oct-8-yl)-thiazol-4-one] displayed an EC50 of 0.02 µM. This EC50 is about 2.3-fold higher than that of the compound before.

On to `CN1C[C@H]2CC[C@@H](C1)N2C1=NC(=O)/C(=C/c2ccc3c(cnn3Cc3ccc(Cl)cc3C(F)(F)F)c2)S1` [Example 87, 5-[1-(4-Chloro-2-trifluoromethyl-benzyl)-1H-indazol-5-ylmethylene]-2-(3-methyl-3,8-diaza-bicyclo[3.2.1]oct-8-yl)-thiazol-4-one], for which the midpoint of the response, the EC50, lay at 0.015 µM. This EC50 and that of the compound before are within 1.5-fold of each other.

On to `COCC(=O)N1[C@H](C)CN(C2=NC(=O)/C(=C/c3ccc4c(cnn4Cc4ccc(Cl)cc4C(F)(F)F)c3)S2)C[C@@H]1C` [Example 88, 5-[1-(4-Chloro-2-trifluoromethyl-benzyl)-1H-indazol-5-ylmethylene]-2-[4-(2-methoxy-acetyl)cis-3,5-dimethyl-piperazin-1-yl]-thiazol-4-one], for which the EC50 was 0.013 µM.

`COCC(=O)N1C[C@@H]2C[C@H]1CN2C1=NC(=O)/C(=C/c2ccc3c(cnn3Cc3ccc(Cl)cc3C(F)(F)F)c2)S1` [Example 89, 5-[1-(4-Chloro-2-trifluoromethyl-benzyl)-1H-indazol-5-ylmethylene]-2-[5-(2-methoxy-acetyl)-2S,5S-diaza-bicyclo[2.2.1]hept-2-yl]-thiazol-4-one] displayed a concentration for a half-maximal effect (EC50) of 0.0047 µM. This EC50 is about 2.8-fold lower than that of the compound before.

For `COCC(=O)N1CCN(C2=NC(=O)/C(=C/c3ccc4c(cnn4Cc4ccc(Cl)cc4C(F)(F)F)c3)S2)[C@H](C)C1` [Example 90, 5-[1-(4-Chloro-2-trifluoromethyl-benzyl)-1H-indazol-5-ylmethylene]-2-[4-(2-methoxy-acetyl)-2-(R)-methyl-piperazin-1-yl]-thiazol-4-one], the EC50 was 0.0034 µM. This EC50 and that of the compound before are within 1.5-fold of each other.

As to `COCC(=O)N1CCN(C2=NC(=O)/C(=C/c3ccc4c(cnn4Cc4ccc(Cl)cc4C(F)(F)F)c3)S2)CC1` [Example 91, 5-[1-(4-Chloro-2-trifluoromethyl-benzyl)-1H-indazol-5-ylmethylene]-2-[4-(2-methoxy-acetyl)-piperazin-1-yl]-thiazol-4-one], the EC50 was determined as 0.0087 µM. This EC50 lies about 2.6-fold higher than the previous one.

`NC1CN(C2=NC(=O)/C(=C/c3ccc4c(cnn4Cc4ccc(Cl)cc4C4CC4)c3)S2)C1` [Example 92, 2-(3-Amino-azetidin-1-yl)-5-[1-(4-chloro-2-cyclopropyl-benzyl)-1H-indazol-5-ylmethylene]-thiazol-4-one] displayed an EC50 of 0.049 µM.

Compound `CN1CCN(C2=NC(=O)/C(=C/c3ccc4c(cnn4Cc4ccc(Cl)cc4C4CC4)c3)S2)CC1` [Example 93, 5-[1-(4-Chloro-2-cyclopropyl-benzyl)-1H-indazol-5-ylmethylene]-2-(4-methyl-piperazin-1-yl)-thiazol-4-one] displayed an EC50 of 0.0144 µM.

With `O=C1N=C(N2CC(C(=O)O)C2)S/C1=C\c1ccc2c(cnn2Cc2ccc(Cl)cc2C2CC2)c1` [Example 94, 1-(5-[1-(4-Chloro-2-cyclopropyl-benzyl)-1H-indazol-5-ylmethylene]-4-oxo-dihydro-thiazol-2-yl)-azetidine-3-carboxylic acid], it took 0.026 µM to reach a half-maximal effect (EC50).

As to `CN1CCN(C2=NC(=O)/C(=C/c3ccc4c(cnn4Cc4ccc(Cl)cc4Br)c3)S2)CC1` [Example 95, 5-[1-(2-bromo-4-chlorobenzyl)-1H-indazol-5-ylmethylene]-2-(4-methyl-piperazin-1-yl)-thiazol-4-one], the half-maximal effective concentration (EC50) was 0.011 µM.

`CN1CCN(C2=NC(=O)/C(=C/c3ccc4c(cnn4Cc4ccc(Cl)cc4I)c3)S2)CC1` [Example 96, 5-[1-(4-Chloro-2-iodo-benzyl)-1H-indazol-5-ylmethylene]-2-(4-methyl-piperazin-1-yl)-thiazol-4-one] gave an EC50 of 0.064 µM. Against the preceding compound, the EC50 is about 5.8-fold higher.

In turn, `CC(=O)c1cc(Cl)ccc1Cn1ncc2cc(/C=C3\SC(N4CCN(C)CC4)=NC3=O)ccc21` [Example 97, 5-[1-(2-Acetyl-4-chloro-benzyl)-1H-indazol-5-ylmethylene]-2-(4-methyl-piperazin-1-yl)-thiazol-4-one] had an EC50 of 0.029 µM.

Turning to `O=C1N=C(N2C[C@@H](O)[C@H](O)C2)S/C1=C\c1ccc2c(cnn2Cc2ccc(Cl)cc2C(F)(F)F)c1` [Example 99, 5-[1-(4-Chloro-2-trifluoromethyl-benzyl)-1H-indazol-5-ylmethylene]-2-(3R,4R-dihydroxy-pyrrolidin-1-yl)-thiazol-4-one], the EC50 turned out to be 0.0028 µM. This EC50 is about 10-fold lower than that of the compound before.

The compound `O=C1N=C(N2CC3CC2CN3)S/C1=C\c1ccc2c(cnn2Cc2ccc(Cl)cc2C(F)(F)F)c1` [Example 100, 5-[1-(4-Chloro-2-trifluoromethyl-benzyl)-1H-indazol-5-ylmethylene]-2-(2S,5S-diaza-bicyclo[2.2.1]hept-2-yl)-thiazol-4-one] gave an EC50 of 0.014 µM.

On to `CN1C2CCC1CN(C1=NC(=O)/C(=C/c3ccc4c(cnn4Cc4ccc(Cl)cc4C(F)(F)F)c3)S1)C2` [Example 101, 5-[1-(4-Chloro-2-trifluoromethyl-benzyl)-1H-indazol-5-ylmethylene]-2-(8-methyl-3,8-diaza-bicyclo[3.2.1]oct-3-yl)-thiazol-4-one], for which the EC50 was 0.0214 µM.

In turn, `O=C1CN(C2=NC(=O)/C(=C/c3ccc4c(cnn4Cc4ccc(Cl)cc4C(F)(F)F)c3)S2)C1` [Example 102, 5-[1-(4-Chloro-2-trifluoromethyl-benzyl)-1H-indazol-5-ylmethylene]-2-(3-oxo-azetidin-1-yl)-thiazol-4-one] returned an EC50 of 0.022 µM.

Regarding `CN1C2CCC1CN(C1=NC(=O)/C(=C/c3ccc4c(cnn4Cc4ccc(C(F)(F)F)cc4C(F)(F)F)c3)S1)C2` [Example 103, 5-[1-(2,4-Bis-trifluoromethyl-benzyl)-1H-indazol-5-ylmethylene]-2-(8-methyl-3,8-diaza-bicyclo[3.2.1]oct-3-yl)-thiazol-4-one], the EC50 came out at 0.0122 µM.

By EC50 is commonly meant the concentration giving half of the maximal effect. High values mean weaker potency, low ones greater potency.
